Measurements taken from BindingDB's records for doi:10.1111/cbdd.12539 (Jagiellonian University Medical College, 2015).

Legend:
[1] = target: 5-hydroxytryptamine receptor 7 (Homo sapiens, UniProt P34969); experiment: Radioligand Binding Assay; conditions: 25 °C
[2] = target: T1, 5-hydroxytryptamine receptor 1A (Homo sapiens, UniProt P08908); experiment: Radioligand Binding Assay; conditions: 25 °C
T1 sequence (P08908 whole entry): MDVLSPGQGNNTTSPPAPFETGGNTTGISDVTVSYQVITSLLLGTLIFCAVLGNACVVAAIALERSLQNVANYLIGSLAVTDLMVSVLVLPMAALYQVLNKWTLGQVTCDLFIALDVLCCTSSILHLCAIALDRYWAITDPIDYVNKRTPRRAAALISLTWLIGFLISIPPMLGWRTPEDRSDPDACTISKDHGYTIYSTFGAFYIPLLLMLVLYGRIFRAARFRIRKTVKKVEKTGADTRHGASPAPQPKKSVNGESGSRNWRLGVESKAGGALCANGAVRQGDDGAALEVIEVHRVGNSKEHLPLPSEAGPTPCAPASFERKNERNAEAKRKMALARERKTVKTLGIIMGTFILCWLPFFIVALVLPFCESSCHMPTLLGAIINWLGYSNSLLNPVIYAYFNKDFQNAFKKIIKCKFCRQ
Experimental: All assays were incubated in a total volume of […] in 96-well microtiter plates for 1 h at 37 °C, except for 5-HT1ARs which were incubated at room temperature for 1 h. The process of equilibration was terminated by rapidfiltration through Unifilter plates with a 96-well cell harvester and radioactivity retained on the filters was quantified on a Microbeta plate reader.

Sequence of 5-hydroxytryptamine receptor 7 (P34969 whole entry): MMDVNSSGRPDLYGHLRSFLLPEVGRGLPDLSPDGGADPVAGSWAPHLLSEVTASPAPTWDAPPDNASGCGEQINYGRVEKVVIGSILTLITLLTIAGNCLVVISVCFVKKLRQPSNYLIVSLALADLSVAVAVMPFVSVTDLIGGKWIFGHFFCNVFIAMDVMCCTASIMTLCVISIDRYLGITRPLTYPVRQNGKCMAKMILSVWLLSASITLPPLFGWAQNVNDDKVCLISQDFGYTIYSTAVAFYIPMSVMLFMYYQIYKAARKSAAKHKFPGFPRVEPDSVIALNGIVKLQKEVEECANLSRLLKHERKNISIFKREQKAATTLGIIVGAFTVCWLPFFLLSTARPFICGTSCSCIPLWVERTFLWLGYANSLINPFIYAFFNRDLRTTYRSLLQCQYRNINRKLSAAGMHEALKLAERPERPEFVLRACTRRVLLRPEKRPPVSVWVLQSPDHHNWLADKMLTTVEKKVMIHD

| SMILES | Ki [1] [nM] | Ki [2] [nM] |
| --- | --- | --- |
| O=C1NN=C(c2ccccc2Cl)NC1CCCCN1CCN(c2ccccc2F)CC1 (stereo not given) [3-(2-Chlorophenyl)-5-{4-[4-(2-fluorophenyl)piperazin-1-yl]butyl}-4,5-dihydro-1,2,4-triazin-6(1H)-one (17)] | 91 | 37 |
| O=C1NN=C(C2CCCCC2)NC1CCCCN1CCN(c2cccc(Cl)c2Cl)CC1 (stereo not given) [3-Cyclohexyl-5-{4-[4-(2,3-dichlorophenyl)piperazin-1-yl]butyl}-4,5-dihydro-1,2,4-triazin-6(1H)-one (20)] | 5 | 32 |
| CSc1ccccc1N1CCN(CCCCC2NC(C3CCCCC3)=NNC2=O)CC1 (stereo not given) [3-Cyclohexyl-5-{4-[4-(2-(methylthio)phenyl)piperazin-1-yl]butyl}-4,5-dihydro-1,2,4-triazin-6(1H)-one (19)] | 6 | 14 |
| COc1ccccc1N1CCN(CCCCC2NC(C3CCCCC3)=NNC2=O)CC1 (stereo not given) [3-Cyclohexyl-5-{4-[4-(2-methoxyphenyl)piperazin-1-yl]butyl}-4,5-dihydro-1,2,4-triazin-6(1H)-one (18)] | 20 | 5 |
| O=C1NN=C(c2ccccc2)NC1CCCCN1CCN(c2ccccc2)CC1 (stereo not given) [3-Phenyl-5-[4-(4-phenylpiperazin-1-yl)butyl]-4,5-dihydro-1,2,4-triazin-6(1H)-one (11)] | 95 | 79 |
| O=C1NN=C(c2ccccc2)NC1CCCCN1CCN(c2cccc(Cl)c2Cl)CC1 (stereo not given) [5-{4-[4-(2,3-Dichlorophenyl)piperazin-1-yl]butyl}-3-phenyl-4,5-dihydro-1,2,4-triazin-6(1H)-one (16)] | 16 | 70 |
| CSc1ccccc1N1CCN(CCCCC2NC(c3ccccc3)=NNC2=O)CC1 (stereo not given) [5-{4-[4-(2-(Methylthio)phenyl)piperazin-1-yl]butyl}-3-phenyl-4,5-dihydro-1,2,4-triazin-6(1H)-one (13)] | 17 | 28 |
| O=C1NN=C(c2ccccc2)NC1CCCCN1CCN(c2ccccc2F)CC1 (stereo not given) [5-{4-[4-(2-Fluorophenyl)piperazin-1-yl]butyl}-3-phenyl-4,5-dihydro-1,2,4-triazin-6(1H)-one (14)] | 100 | 119 |
| COc1ccccc1N1CCN(CCCCC2NC(c3ccccc3)=NNC2=O)CC1 (stereo not given) [5-{4-[4-(2-Methoxyphenyl)piperazin-1-yl]butyl}-3-phenyl-4,5-dihydro-1,2,4-triazin-6(1H)-one (12)] | 27 | 9 |
| O=C1NN=C(c2ccccc2)NC1CCCCN1CCN(c2ccc(Cl)cc2)CC1 (stereo not given) [5-{4-[4-(4-Chlorophenyl)piperazin-1-yl]butyl}-3-phenyl-4,5-dihydro-1,2,4-triazin-6(1H)-one (15)] | 79 | 698 |
